Test results reported in patent US20240248101A1 (The United States of America, as represented by the …, priority 2021, published 2024).
“And” between values parts separate entries of the source, which are not always exact repeats. Equal entries are not always repeated.

What was measured:
[1] = Vitamin C renal leak study in diabetic cohort, nondiabetic controls and healthy subgroup (matched fasting plasma and 1 h urine); type: in vivo, human; conditions: for Plasma Vitamin C Concentration (mean): fasting
Method: Vitamin C in plasma and urine was measured using coulometric electrochemical detection with high performance liquid chromatography.
Study design: This was a non-randomized cross-sectional cohort outpatient study aimed at investigating the prevalence and clinical characteristics of vitamin C renal leak in a cohort of individuals with diabetes and non-diabetic controls. The protocol was approved by the Institutional Review Boards of NIDDK, NIH.
Participants and Recruitment: The study included a cohort of diabetic and non-diabetic individuals aged 18-65, without known acute or chronic medical conditions other than complications of diabetes mellitus or metabolic syndrome. Exclusion criteria included presence of an acute or chronic illness, alcohol abuse or tobacco use and pregnancy.
Subjects were also instructed to avoid food or drinks (other than water and medications) after midnight, prior to study sampling day. On morning of study sampling, subjects were admitted to the NIH CRC's metabolic unit as outpatients. They were instructed to empty their bladder. […] Subjects were subsequently provided with a meal and discharged home.
Study Groups and Comparators for Analyses: Three groups of participants who met the inclusion and exclusion criteria were used for data analyses: diabetic cohort, nondiabetic control group and healthy subgroup. The diabetic cohort was comprised of men and women with type 1 or type 2 diabetes. The nondiabetic control group was made up of individuals without diabetes and were not taking any chronic medications. To investigate unknown factors associated with renal leak, related and unrelated to diabetes, the study exclusion criteria was non-restrictive to recruit a broad sampling of the population. Thus, the nondiabetic control group included asymptomatic subjects with abnormal laboratory values which not determined to be clinically significant during the screening evaluation. However, inclusion of individuals with abnormal laboratory values in the non-diabetic control group could confound study findings. To address this concern, a post-hoc healthy subgroup of the nondiabetic control group without abnormal laboratory findings was identified. Primary comparative analysis was between the diabetic group vs nondiabetic control group. The diabetic group was secondarily compared with the healthy subgroup to assess for discordant findings.
This binary criterion is a qualitative measure indicating the presence or absence of a renal leak in a subject. The prevalence of renal leak was calculated as the proportion of leakers in each population cohort.
FeVC is a quantitative measure that describes the degree and magnitude of a renal leak. The formula for calculating FeVC is shown below: […]
Sample collection and vitamin C assay: Urine and plasma vitamin C were analyzed by HPLC with coulometric electrochemical detection. Other blood and urine chemistry measurements were performed, using standard laboratory methods, by the department of laboratory medicine Clinical Laboratory Improvement Amendments (CLIA) identification number: 21D0665373, Clinical Research Center, National Institutes of Health.

[2] = Vitamin C depletion-repletion pharmacokinetic study: renal threshold and minimal elimination threshold (PBPK and PCF modelling); type: in vivo, human; conditions: for vitamin C renal threshold, Population Curve Fitting (PCF): population estimate
Method: Renal threshold was estimated using physiology-based pharmacokinetics modeling. […] Mice knockout models were used for proof-of-concept studies. Vitamin C was measured using coulometric electrochemical detection with high performance liquid chromatography.
Pharmacokinetics components of depletion-repletion study design have been described previously (see supplementary methods). The protocol was approved by the Institutional Review Board, National Institutes of Diabetes and Digestive and Kidney diseases (NIDDK), National Institutes of Health (NIH).
Participants, Interventions: Healthy men and women aged 18 to 35 years without any acute or chronic medical conditions. Details on eligibility and study interventions are described in supplementary methods.
Full details regarding studying outcomes and analyses are provided in supplementary methods. […] Each subject had 5-7 oral and intravenous pharmacokinetic studies over a 13-fold or greater dose range. Data from the NIH depletion study in men and women were used to estimate the vitamin C renal threshold by two different methods: physiology-based pharmacokinetics modeling (PBPK), and population curve fitting with empirical functions (PCF). […] Based on data from healthy men, this model facilitated description of pharmacokinetics-time profiles of vitamin C in plasma, urine, and tissues simultaneously. Goodness of fit analyses support the use of this model to data from healthy women. For population curve fitting (PCF), plasma and urine values were analyzed using nonlinear mixed-effect modeling. PCF fits empirical functions to data from all subjects of each sex to estimate the renal threshold for that population of men and women. Using PBPK analyses, minimal elimination threshold (MET) was defined as that plasma concentration 2 standard deviations below the mean renal threshold for men and for women based on guidelines for estimating dietary reference intakes. […] (see supplementary methods).
Because urine samples collected at variable intervals were not synchronized with plasma samples, the time at which vitamin C first appears in the urine or when vitamin C urinary elimination became zero could not be determined from raw data alone. […] Using the data from the NIH depletion repletion study, vitamin C renal threshold was estimated by two different methods: Physiology-Based Pharmacokinetics model (PBPK) and population curve fitting (PCF).
Goodness of fit analysis support the use of the pharmacokinetics model to data collected from 15 normal women. […] When the amount of filtered vitamin C exceeds renal tubular reabsorptive capacity, vitamin C appears in the urine. The point at which renal threshold is reached (when filtration and reabsorption are in equilibrium) can be represented as
The Cplasma that fulfill the above equation is the plasma concentration threshold (renal threshold). At which time, the rate of vitamin C dispense into the tubule equals zero. The equation 2 can be rearranged as
Different non-parametric empirical functions were explored to best describe the combined urine data versus plasma vitamin C value of all subjects. After the structure function (model) was selected using goodness-of-fit assessments, plasma and urine data analyses were finalized using Nonlinear Mixed-Effect (MLME) modeling for population fit with S-Plus for Windows (version 8, Insightful Corp. Seattle, WA) to estimate the parameters account for inter-subject variabilities.
A Michealis-Menten equation (equation 4) was selected and fitted to data to estimate the parameters Vm and KM (maximum rate and Michaelis constant, respectively).
Initial estimate of Vm and KM were obtained by inspecting data plots. Goodness-of-fit was checked by visually inspecting the distribution of Standardized Residuals. If the goodness of fit was not acceptable, the initial parameters (Vm and KM) were changed and the resulting plot inspected again for distribution of residuals. […]

[3] = Vitamin C renal leak study in men with Fabry disease and healthy male controls (matched fasting plasma and 1 h urine); type: in vivo, human; conditions: for median fractional excretion of vitamin C (FeVC): all subjects
From the text: Study design: This was a non-randomized cross-sectional cohort study aimed at investigating the prevalence and clinical characteristics of vitamin C renal leak in men with Fabry disease and healthy male controls. The protocols were approved by the Institutional Review Boards of NINDS and NIDDK, NIH.
Participants: Men with Fabry disease who were actively participating in NIH protocols evaluating the open label use of enzyme replacement therapy (ERT) in Fabry disease (95-N-0121, 00-N-0185 and 02-N-0220), ClinicalTrials.gov Identifiers: NCT00001491 and NCT00068107) were recruited. The male predominance in Fabry disease is based on the X-linked inheritance pattern. Accordingly, healthy men aged 18-58 were recruited on a rolling basis as controls for the Fabry cohort, under NIH protocol 04-DK-0021 (arm 3). Exclusion criteria included acute or chronic illness, alcohol abuse or tobacco use.
Matched urine and plasma vitamin C measurements: Following an overnight fast, on the morning of study, subjects were instructed to empty their bladder. […] Following the initial spot urine collection, subjects were hospitalized for another 24 hours. They consumed a hospital diet free of supplements or foods items with no or low vitamin C content. On morning of day 2, collection of all voided urine for 24 hours (termed 24 h urine) was obtained and subjects were discharged home.
Primary endpoint was the prevalence of vitamin C renal leak in the Fabry's cohort compared with healthy controls. Renal leak status (leak vs no leak) was determined using criteria described in depletion-repletion studies above. […] To address this limitation, renal leak was also expressed as fractional excretion of vitamin C (FeVC) defined as follows: […]
Following an overnight fast, on the morning of study, subjects were instructed to empty their bladder. […] Subjects could watch TV, read, take naps, or rest in any other way they choose. […]

[4] = Plasma and urine vitamin C in gulo-/- mice given vitamin C in drinking water; type: in vivo, mouse; conditions: gulo-/- mice of both sexes, vitamin C 0 to 5000 mg/L in drinking water
Method: Values represent means+/−SDs. All mice were maintained at each dose for one week before blood and urine sampling.
Animal experiments were approved by the Animal Care and Use Committee NIDDK, NIH, and were conducted in accordance with NIH guidelines. Mice were 10-14-week-old males and females with free access to food and water and were maintained on a regular chow diet (NIH-07) without detectable ascorbate (detection limit 10 nM). Mice type were gulo^−/− and SVCT1^−/−. […] To maintain the mice, vitamin C was provided via drinking water, which was changed daily.
Plasma and RBCs were from mouse whole blood as described. Urine was collected at the same time as the blood by gentle abdominal pressure.
Blood and urine samples were collected on ice and processed promptly. All samples were stored at −80 C and assayed together by HPLC as previously described.

SMILES: O=C1O[C@H]([C@@H](O)CO)C(O)=C1O [vitamin C]
- Median FeVC ([1]; Diabetic Cohort, All Subjects): 0.00032
- Median FeVC ([1]; Diabetic Cohort, Plasma Vit C < MET): 0.00015
- Median FeVC ([1]; Diabetic Cohort, Plasma Vit C ≥ MET): 0.0012 and 0.00122
- Plasma Vitamin C Concentration (mean) ([1]; Diabetic Cohort, table part adjusted for sex/gender): 40.9 µM
- Plasma Vitamin C Concentration (mean) ([1]; Diabetic Cohort, un-adjusted for sex/gender): 40.9 µM
- Median FeVC ([1]; Healthy Subgroup, All Subjects): 0.00046
- Median FeVC ([1]; Healthy Subgroup, Plasma Vit C < MET): 0
- Median FeVC ([1]; Healthy Subgroup, Plasma Vit C ≥ MET): 0.00046
- Plasma Vitamin C Concentration (mean) ([1]; Healthy Subgroup, table part adjusted for sex/gender): 57.1 µM
- Plasma Vitamin C Concentration (mean) ([1]; Healthy Subgroup, un-adjusted for sex/gender): 57.1 µM
- Median FeVC ([1]; Non-Diabetic Control, All Subjects): 0.00044
- Median FeVC ([1]; Non-Diabetic Control, Plasma Vit C < MET): 0.0000
- Median FeVC ([1]; Non-Diabetic Control, Plasma Vit C ≥ MET): 0.0010
- Plasma Vitamin C Concentration (mean) ([1]; Non-Diabetic Control, table part adjusted for sex/gender): 53.1 µM
- Plasma Vitamin C Concentration (mean) ([1]; Non-Diabetic Control, un-adjusted for sex/gender): 53.1 µM
- Minimal Elimination Threshold (MET), 2SD below mean renal threshold using PBPK ([2]; healthy men): 38.1 µM
- vitamin C renal threshold, Pharmacokinetic Modeling (PBPK), individual estimates ([2]; healthy men, individual subjects M1-M7, plasma concentration at which vitamin C first appears in urine): 52 μM and 51 μM and 40 μM and 56 μM and 45 μM (2×) and 50 μM
- vitamin C renal threshold, PBPK, Mean (SD) ([2]; healthy men, n = 7): 48.5(5.2) μM
- vitamin C renal threshold, PBPK, Mean (SD) ([2]; healthy men, n = 7, listed as Vitamin C): 48.5 μM and 48.5 (5.2) μM
- vitamin C renal threshold, Population Curve Fitting (PCF) ([2]; healthy men): 48.3 µM and 48.28 µM
- vitamin C renal threshold, Population Curve Fitting (PCF) ([2]; healthy men, listed as Vitamin C): 48.3 µM
- Minimal Elimination Threshold (MET), 2SD below mean renal threshold using PBPK ([2]; healthy women): 43.2 µM
- vitamin C renal threshold, Pharmacokinetic Modeling (PBPK), individual estimates ([2]; healthy women, individual subjects W1-W10): 54 μM (3×) and 67 μM and 57 μM and 64 μM and 63 μM and 45 μM and 70 μM and 55 μM
- vitamin C renal threshold, PBPK, Mean (SD) ([2]; healthy women, n = 10): 58.3(7.5) μM
- vitamin C renal threshold, PBPK, Mean (SD) ([2]; healthy women, n = 10, listed as Vitamin C): 58.3 μM and 58.3 (7.5) μM
- vitamin C renal threshold, Population Curve Fitting (PCF) ([2]; healthy women): 60.4 µM and 60.39 µM
- vitamin C renal threshold, Population Curve Fitting (PCF) ([2]; healthy women, listed as Vitamin C): 60.4 µM
- mean plasma vitamin C concentration ([3]; Fabry cohort and healthy controls after 3-week low vitamin C diet, order of cohorts not stated): 38.9 µM and 36.5 µM
- median fractional excretion of vitamin C (FeVC) ([3]; healthy male controls): 0
- median fractional excretion of vitamin C (FeVC) ([3]; men with Fabry disease): 0.018
- plasma vitamin C concentration below which no vitamin C was found in urine (renal threshold) [4]: 55 µM
